Results as given in US10201158B2, “Plant disease control composition and method for controlling plant disease by application of same” (MITSUI CHEMICALS AGRO, INC., priority 2014, dated 2019).
“And” between values parts separate entries of the source, which are not always exact repeats. Equal entries are not always repeated. Where two headings read alike, the source gives them in different places.

Assays:
Pyricularia oryzae = format: in vivo; details: treatment concentration 10 ppm; for Control value: Table 3-1
Blumeria graminis = experiment: Barley powdery mildew preventive test; format: in vivo; details: Table 4; treatment concentration 10 ppm; 8 days after inoculation
Experimental: Barley plants (variety: Akashinriki) planted in plastic pots having a diameter of 5 cm were grown indoors to the second to fourth leaf stage. Wettable powder containing the compounds indicated in Table 4 were sprayed in the same manner as in Test Example 1, and after the chemical had dried, conidia of Blumeria graminis was inoculated onto the leaves. Following inoculation, the pots were transferred to a constant-temperature chamber (20° C. to 25° C.), and control effects were examined 8 days after inoculation.

[1] = tested on: Pseudoperonospora cubensis; experiment: Cucumber downy mildew preventive test; format: in vivo; details: Table 8; treatment concentration 10 ppm; 7 days after inoculation
Experimental: In a greenhouse, cucumber (variety: Sagamihanshiro) planted in a plastic pot having a diameter of 5 cm was grown to the 3rd to 5th-leaf stage. Spray was carried out in the same manner as in Test example 1, and after drying the chemical liquid, the pots were transferred into a greenhouse. After 3 days from the spray, a zoosporangium suspension of Pseudoperonospora cubensis was inoculated. After inoculation, the pots were placed in a high-humidity chamber (20 to 25° C.), transferred into a greenhouse on the next day, and controlling effects were examined after 7 days from the inoculation. A ratio of lesion area occupied per one leaf of cucumber was determined according to the same index as in Test example 1, and the control value and the theoretical value according to Colby's formula were similarly calculated.

Sphaerotheca fuliginea = experiment: Cucumber powdery mildew preventive test; format: in vivo; details: in vivo
Experimental: In a greenhouse, cucumber (variety: Sagamihanshiro) planted in a plastic pot having a diameter of 5 cm was grown to the 3rd to 5th-leaf stage. Spray was carried out in the same manner as in Test example 1, and 3 days after the spray, a conidia suspension prepared from Sphaerotheca fuliginea were inoculated on the leaf surface. After inoculation, the pots were placed in a thermostatic greenhouse (20 to 25° C.), and controlling effects were examined after 7 days from the inoculation. In the examination, a ratio of lesion area occupied per one leaf of cucumber was determined according to the same index as in Test example 1, and the control value and the theoretical value according to Colby's formula were similarly calculated.
Wettable powder prepared in compliance with Comparative Preparation Example 4 containing the compounds indicated in Table 7-9 were sprayed to the cucumber leaves, a conidiospore suspension prepared from Sphaerotheca fuliginea was inoculated onto the plants, and the controlling effects were examined in a manner similar to Test Example 6.

Puccinia recondita = experiment: Wheat brown rust preventive test; format: in vivo; details: Table 5; treatment concentration 10 ppm; 8 days after inoculation
Experimental: Wheat plants (variety: Norin 61 gou) planted in plastic pots having a diameter of 5 cm were grown indoors to the second to fourth leaf stage. Wettable powder containing the compounds indicated in Table 5 were sprayed in the same manner as in Test Example 1, and after the chemical had dried, a conidia suspension of Puccinia recondita was inoculated onto the leaves. Following inoculation, the pots were placed in the humidified chamber of an artificial inoculation room (20° C. to 23° C.), removed on the following day and then transferred to a greenhouse. Control effects were examined 8 days after inoculation. During the examination, the number of lesions on five leaves of the wheat plants was determined in accordance with the following incidence degree indicators, and control values and theoretical values as determined according to Colby's formula were calculated in the same manner as in Test Example 1.

Phytophthora infestans = format: in vivo; details: treatment concentration 10 ppm, 5 days after inoculation; for Control value: Table 6-1
Botrytis cinerea = details: in vivo
[2] = Table 3-5 (Comparative Example 2)

| Structure (SMILES) | Control value (Pyricularia oryzae) | Preventive value (Pyricularia oryzae; Table 3-2) | Preventive value (Pyricularia oryzae; Table 3-3) | Preventive value (Pyricularia oryzae; Table 3-4) | Preventive value (Pyricularia oryzae; [2]) | Control value (Blumeria graminis) | Preventive value [1] | Control value (Sphaerotheca fuliginea) | Preventive value (Sphaerotheca fuliginea) | Control value (Puccinia recondita) | Control value (Phytophthora infestans) | Preventive value (Phytophthora infestans; Table 6-2) | Preventive value (Phytophthora infestans; Table 6-3) | Control value (Botrytis cinerea) | Preventive value (Botrytis cinerea) |
| --- | --- | --- | --- | --- | --- | --- | --- | --- | --- | --- | --- | --- | --- | --- | --- |
| CC1(C)N=C(c2cnc3ccccc3c2)c2cccc(F)c2C1(F)F [Compound C, 3-(4,4,5-trifluoro-3,3-dimethyl-3,4-dihydroisoquinolin-1-yl)quinoline] | 67 | 73 | 73 | 67 | 67 | 6 | 17 | 33 and 17 | 33 and 40 | 8 | 4 | 40 | 37 | 57 | 73 and 60 and 70 and 77 and 67 and 40 |
| CC1(C)N=C(c2cnc3ccccc3c2)c2ccccc2C1(F)F [Compound B, 3-(4,4-difluoro-3,3-dimethyl-3,4-dihydroisoquinolin-1-yl)quinoline] | 67 | 73 | 73 | 67 | 67 | 6 | 23 | 33 and 17 | 33 and 40 | 6 | 13 | 33 | 40 | 57 | 77 and 70 and 73 and 80 and 67 and 40 |
| CC1(C)N=C(c2cnc3ccccc3c2)c2cccc(F)c2C1(C)C [Compound A, 3-(5-fluoro-3,3,4,4-tetramethyl-3,4-dihydroisoquinolin-1-yl)quinoline] | 67 | 73 | 73 | 67 | 67 | 6 | 27 | 33 and 17 | 40 | 11 | 8 | 33 | 47 | 64 | 77 and 70 and 73 and 67 and 40 |
